Experimental findings from PMC8198038, “In Vitro Evaluation of Antiproliferative Properties of Novel Organotin(IV) Carboxylate Compounds with Propanoic Acid Derivatives on a Panel of Human Cancer Cell Lines” (Molecules, 2021) are described below.

For assay [1], the system named is PC-3 (human prostate cancer) cells. Put plainly: MTT assay, PC-3 cells. Type of assay: cell-based. The note with it: MTT assay, 48 h incubation; read-out: IC50 (mean ± SD), PC-3, MTT. The procedure: (§1) The cell proliferations of ligand precursors and organotin(IV) compounds were evaluated with the aid of MTT (3-(4,5-dimethylthiazol-2-yl)-2,5-12 diphenyltetrazolium bromide) and CV (crystal violet) assays toward prostate (PC-3), colon (HT-29), breast (MCF-7) and hepatic (HepG2) cancer cell lines, and normal mouse embryonic fibroblast cells (NIH 3T3). The cells were cultivated in T75 flasks containing 10 mL of complete medium and kept at 37 °C and 5% CO2 […]. The nutrient medium was RPMI-1640 (PAA Laboratories) supplemented with 10% foetal bovine serum, L-glutamine, and penicillin/streptomycin (Sigma). Afterward, 5.000 cells of PC-3 and MCF-7 and 1.500 cells of HT-29 and HepG2 were transferred into 96 well-plates and used for MTT and CV assays. For microscopy investigations as well as FACS measurements (except for ROS/RNS measurements), MCF-7 cells were seeded overnight in 6-well plates (150,000 cells/well) in […] of complete medium. […] In all assays, control cells were untreated MCF-7 cells incubated for the same time period as treated cells and treated with appropriate reagents in various assays. BD FACS Aria III was used for flow cytometry experiments and results were analysed using BD FACSDiva software (BD Biosciences, Heidelberg, Germany) and Cyflogic (V 1.2.1, CyFlo Ltd., Turku, Finland). A fluorescence microscope Invitrogen EVOS FL 2 Auto 2 Cell Imaging System was used for visualization of the cells as well as for detection of fluorescence in the cells.
(§2) Ligands HL1‒HL3, organotin(IV) compounds, and cisplatin were investigated in 9 different concentrations (100, 50, 10, 5, 1, 0.5, 0.1, 0.05, 0.01 μM). Using the complete medium, each stock solution of the test compounds (20 mM in DMSO) was diluted to obtain the working solution. The final concentration of DMSO never overstepped 0.5%, which is non-toxic to the cells. Three technical replicates were performed for each concentration. The treated cells were incubated for 48 h at 37 °C under 5% CO2 and the viability of the cells was determined using MTT and CV assays according to the literature procedure. The IC50 values, defined as 50% inhibitory concentration, were calculated with a four-parameter logistic function and presented in a mean. All experiments were performed in triplicate.
On the technique in general: Tetrazolium dyes change colour on reduction, which living cells bring about.

For assay [2], the system named is MCF-7 (breast cancer) cells. In words: MTT assay, MCF-7 cells. It is filed as cell-based, human. As to conditions: for IC50: MTT assay, 48 h incubation, read-out: IC50 (mean ± SD), MCF-7, MTT. The method, then: as §1, §2
Assay [3] concerns NIH3T3 (normal mouse embryonic fibroblast) cells. Put plainly: MTT assay, NIH3T3 cells. Type of assay: cell-based. As to conditions: MTT assay, 48 h incubation, normal cells; read-out: IC50 (mean ± SD), NIH3T3, MTT. The method, then:
as §1, §2

The subject of assay [4] is PC-3 (human prostate cancer) cells. In words: CV (crystal violet) assay, PC-3 cells. Type of assay: cell-based. As to conditions: CV assay, 48 h incubation; read-out: IC50 (mean ± SD), PC-3, CV. The method, then: as §1, §2
Assay [5] concerns HepG2 (hepatocellular cancer) cells. In words: CV (crystal violet) assay, HepG2 cells. The note with it: CV assay, 48 h incubation; read-out: IC50 (mean ± SD), HepG2, CV. It is filed as cell-based, human. The method, then:
as §1, §2

Assay [6] deals with MCF-7 cells. In words: Cell cycle analysis (DAPI, flow cytometry). Type of assay: cell-based, human. The note with it: 48 h, IC50 dose. The method, then:
The mode of action was further investigated by analysing the effects of Ph3SnL1 and cisplatin on the cell cycle phase distribution of MCF-7 cells. This was evaluated by cytofluorimetric analysis using DAPI staining. […] While cisplatin acts on DNA (among other effects), the lipophilic cationic nature of triphenyltin(IV) may guide it preferentially to mitochondria to intervene with cells’ energy metabolism.
The Falcon tubes were centrifuged for 3 min at 1000 rpm and the supernatant was discarded. Afterwards, the cells were washed with 1 mL of PBS, centrifuged for 3 min at 1000 rpm and the supernatant was discarded. The cells were resuspended in 300 μL of ice-cold PBS buffer and then fixed by adding them dropwise to 700 μL of ice-cold absolute ethanol. The cells were stored for 24 h at 4 °C, then centrifuged for 3 min at 1000 rpm, washed with PBS and stained with 1 mL of DAPI (4′,6-diamidino-2-phenylindole) working solution [39]. The prepared cells were incubated at room temperature for 10 min and analysed by flow cytometry.
(In general: In flow cytometry, cells or beads pass a laser one at a time.)

In assay [7] the test system is MCF-7 cells. In words: ROS/RNS (DHR) and NO (DAF-FM) production, flow cytometry. Type of assay: cell-based, human. As to conditions: 48 h, IC50 concentration. From the text:
Reactive oxygen (ROS) and nitrogen species (RNS) are natural by-products of the aerobic metabolism in cells. At physiological concentrations, they play a significant role in regulating numerous cellular processes. On the other hand, it is well-known that the reactive oxygen (O2^•−, H2O2, OH^•−) and nitrogen species (NO) are highly reactive molecules that easily damage cells by interacting with biomolecules such as proteins, lipids, carbohydrates, and nucleic acids, thus triggering different pathological conditions (inflammation, cardiovascular disorders, neurodegenerative diseases, and the formation of cancer cells).
For the investigation of ROS/RNS production the cells from the T25 flask were collected by applying 1 mL of trypsin and diluted with 9 mL of complete medium. Using 1 mL of DHR (dihydrorhodamine) working solution the cells were stained and incubated at 37 °C and 5% CO2 for 10 min. The staining process was stopped by applying 4 mL of complete medium, then the solution was centrifuged for 3 min at 1000 rpm and the supernatant was discarded. The cells were resuspended in complete medium (1 mL/well) and seeded in a 6 well plate. […] The prepared cells were analysed by flow cytometry.
The cells were washed with PBS and then treated with 1 mL of DAF-FM (4-amino-5-methylamino-2,7′-diflurofluorescin diacetate) working solution. […] The prepared cells were analysed by flow cytometry.

By IC50 is commonly meant the concentration that inhibits the measured activity by half. As to `O=C(CCc1nc(-c2ccccc2)c(-c2ccccc2)o1)[O][Sn]([c]1ccccc1)([c]1ccccc1)[c]1ccccc1` [Ph3SnL1, (3-(4,5-Diphenyloxazol-2-yl)propanoato)triphenyltin(IV)], the IC50 in assay [1] is 181 ± 27 nM; in assay [2] it was 132 ± 21 nM; in assay [3], 2170 ± 530 nM; in assay [4], 556 ± 38 nM; in assay [5], 366 ± 51 nM. Further, the “fold higher activity compared to cisplatin against MCF-7” value in assay [2] (Table 1 IC50 values, 48 h) is “up to 120 fold”. Moreover, the “cell cycle phase distribution” value with MCF-7 cells [6] is listed as “does not lead to any significant changes in the cell cycle distribution”. In addition, the “production of ROS/RNS species” value in the assay on MCF-7 cells [7] was “does not affect the production of ROS and RNS”.
On to `N.N.[Cl][Pt][Cl]` [cisplatin, reference compound], for which the half-inhibitory concentration (IC50) in assay [1] was determined as 14300 ± 260 nM; in assay [2] it was 15200 ± 1040 nM; in assay [3], 8810 ± 510 nM; in assay [4], 13000 ± 450 nM; in assay [5] it was 3650 ± 350 nM. Further, the “cell population in G1/G0 phase” value in the assay on MCF-7 cells [6] was “considerable decrease”. For the same molecule, in the assay on MCF-7 cells [6], the “cell population in S and G2/M phases” value was “increase”. The “population of cells in the sub-G1 phase” value with MCF-7 cells [6] is on record as “did not lead to any observable changes”. In addition, the “production of ROS/RNS species” value in the assay with MCF-7 cells [7] was “elevates the production of both reactive oxygen and nitrogen species”.
